# Measurements reported in paper PMC8400257, “2-Phenoxy-3-Trichloromethylquinoxalines Are Antiplasmodial Derivatives with Activity against the Apicoplast of Plasmodium falciparum” (Pharmaceuticals, 2021).
# “Also recorded” adds a separate entry of the source.
# Assays:
# [1] = test system: quiescent ART-resistant F32-ART5 parasites; experiment: Quiescent-stage survival assay (QSA); format: cell-based, Plasmodium falciparum; conditions: F32-ART5, DHA 700 nM 6 h then DHA + 3i 2.5 or 5 µM 48 h
# Protocol: Chemosensitivity evaluation of ART-resistant parasites at the quiescent stage was performed on the strain F32-ART5 thanks to the quiescent-stage survival assay (QSA). D-sorbitol synchronized ring-stages parasites at 3% parasitemia (2% hematocrit) were first exposed to 700 nM of dihydroartemisinin (DHA) for 6 h to induce quiescence of artemisinin-resistant parasites. Then, quiescent parasites were exposed or not (as control condition) to the drug to be tested for 48 h. After drug exposure, parasite cultures were washed with RPMI-1640 medium and replaced in normal drug-free culture conditions. The time to parasite recrudescence was determined as the time required to reach the 3% initial parasitemia. […] In each experiment, results obtained with the condition “DHA 6 h/DHA 48 h” were compared to those obtained with the condition “DHA 6 h/(DHA + drug to be tested) 48 h” in order to determine the delay in recrudescence time. […]
# 3. Studying the effect of (3i) on the liver stage development of P. falciparum Cryopreserved primary human hepatocytes were seeded in 96 well plates with a pre-determined seeding dose that gave a single dense layer of attached hepatocytes. […]
# The culture medium with or without drugs was refreshed every 48 hours and two independent plates were studied. […] Plates were subjected to quantification using an automated plate scanner. […]
# [2] = test system: primary human hepatocytes; experiment: Hepatotoxicity by count of DAPI-stained hepatocyte nuclei; format: cell-based; conditions: dose range up to 30 µM
# Protocol: Finally, we studied the hepatotoxicity of (3i). This was carried out by quantification of DAPI-stained hepatocyte nuclei in culture wells. Generally, if a drug is hepatotoxic, it causes death and detachment of hepatocytes leading to less hepatocyte nuclei counts.
# Upon immunostaining of parasites, the study plates were scanned using a CellInsight high-content screening platform equipped with the Studio HCS software (Thermo Fisher Scientific, Waltham, MA, USA). The details of analysis is provided elsewhere. The number of host hepatocyte nuclei per well was counted by the system as a measure of toxicity of 3i towards the liver cells.
# [3] = test system: K1 chloroquine and pyrimethamine-resistant P. falciparum strain; experiment: In vitro antiplasmodial evaluation (SYBR Green I); format: cell-based, Plasmodium falciparum
# Protocol: For all molecules, the selectivity index was calculated as following SI = CC50/EC50.
# It was maintained in continuous culture, as described previously by Trager and Jensen. Cultures were maintained in fresh A+ human erythrocytes at 2.5% hematocrit in complete medium (RPMI 1640 with 25 mM HEPES, 25 mM NaHCO3, 10% of A+ human serum) at 37 °C under reduced O2 atmosphere (gas mixture 10% O2, 5% CO2, and 85% N2). Parasitemia was maintained daily between 1 and 3%. The P. falciparum drug susceptibility test was carried out by comparing quantities of DNA in treated and control cultures of parasite in human erythrocytes according to an SYBR Green I fluorescence-based method using a 96-well fluorescence plate reader. Compounds, previously dissolved in DMSO (final concentration less than 0.5% v/v), were incubated in a total assay volume of 200 μL (RPMI, 2% hematocrit and 0.4% parasitemia) for 72 h in a humidified atmosphere (10% O2 and 5% CO2) at 37 °C, in 96-well flat bottom plates. Duplicate assays were performed for each sample. After incubation, plates were frozen at […] for 24 h. Then, the frozen plates were thawed for 1 h at 37 °C. Fifteen µL of each sample were transferred to 96-well flat bottom non-sterile black plates (Greiner Bio-one, Kremsmünster, Austria), already containing 15 µL of the SYBR Green I lysis buffer (2X SYBR Green I, 20 mM Tris base pH 7.5, 20 mM EDTA, 0.008% w/v saponin, 0.08% w/v Triton X-100). […] Plates were incubated for 15 min at 37 °C and then read on a TECAN Infinite F-200 spectrophotometer with excitation and emission wavelengths at 485 and 535 nm, respectively.
smiles,measurement,setting,value
"O=[N+]([O-])c1ccc(Oc2nc3ccccc3nc2C(Cl)(Cl)Cl)cc1 [3i, 2-(4-Nitrophenoxy)-3-trichloromethylquinoxaline]","Activity on quiescent ART-resistant parasites (delay in recrudescence time, QSA)",[1],did not present any activity
same,Cytotoxicity on human hepatocytes (hepatocyte nuclei counts),[2],no cytotoxicity on human hepatocytes; also recorded: no cytotoxicity was observed
same,EC50,"[3]; Plasmodium falciparum, K1, 72 h, K1 strain, 72 h incubation, three independent experiments, read-out: EC50 PfK1 (µM) ± SD",0.2 ± 0.04 µM
same,SI (selectivity index),[3]; SI = CC50 HepG2/EC50 PfK1,160.0
